What was measured:
[1] = Example XIII: 6 week swine feeding test, growth rate and feed efficiency; format: in vivo, weanling pigs; details: Table VIII
Source text: Thirty-six weanling pigs weighing approximately thirty pounds each in good physical condition and originating from a common source were used in these tests. The pigs were allocated into sex and weight equalized pens of six pigs each. A one week period was allowed for acclimatization before testing. Three replicates of six pigs were fed the basal ration described below, and three replicates were fed the same basal ration supplemented with 25 g/T of the product of Example I.
The basal ration was a 17% commercial corn-soya pelletized formulation which was free of antibiotic and drug components. Composition of the basal ration formulation was: […]
The rations were offered ad libitum from six bushel self-feeders with a continuous supply of fresh water. The same ration formulations were used throughout the six week feeding period. Individual pig weighing were made after 0,2,4 and 6 (termination) week periods. Feed consumption records were kept on a pen basis, with feed efficiency conversion being compiled at the end of the 2nd, 4th and 6th (termination) week of feeding. Complete morbidity and mortality records were kept.

[2] = Example XII: 4 week chick feeding test, first set (Table VI); format: in vivo, broiler cross chicks; details: Table VI
Source text: (§1) This example compares growth promotion activity of the product of Example I with other growth promotants at a concentration of 25 g/T in the Basal Ration described in Example VII. The other growth promotants include the product described in Example I of U.S. Pat. No. 3,542,784 -- Burch and quinoxaline-1,4-dioxide. Day old broiler cross chicks were weight equalized into groups of 8 chicks each, and four replicates of 8 chicks each were fed the experimental rations over a 4 week period.
The growth promotion tests described in Example X were repeated with the additional testing the products of Examples II and III.

[3] = Example XI: 4 week chick feeding test, five replicates; format: in vivo, broiler cross chicks
Source text: as §1
The growth promotion tests described in Example X were repeated with the exception that fives replicates of 8 chicks each were fed the formulations described in Table V for four weeks.

[4] = Example X: 4 week chick feeding test, 25 g/T; format: in vivo, broiler cross chicks
Source text: as §1

[5] = Example IX: chick feeding test, titration dosage; format: in vivo, broiler cross chicks
Source text: (§2) Day old broiler cross chicks were weight equalized into groups of 8 chicks each and were placed in battery brooders. The 32 chick treatment groups (4 replicates) were fed one of the five rations described below for a four week period. Weekly measurements of body weights and feed consumption were made by replicate, and these measurements used to calculate weight gain and feed efficiency.
The concentrations used in this test were 6.25, 12.5, 25, 50, 100, 200 and 400 g of the Product of Example I per ton of the Basal Ration described in Example VII above. The same number and size chick treatment groups were used in this test as in Example VIII above.

[6] = Example VII: 4 week chick feeding test, weight gain and feed efficiency; format: in vivo, broiler cross chicks; details: analysis of variance; over Basal Ration + Bacitracin
Source text: One hundred twenty day-old broiler cross chicks were weight equalized into 15 groups of 8 chicks each and placed in battery brooders. The 40 chick treatment groups (5 replicates) were fed the one of the three rations described below for a four week period. weekly measurements of body weights and feed consumption were made by replicate, and these measurements used to calculate weight gain and feed efficiency.
The commercial type broiler starter basal ration which was used in this study was designated as the Basal Ration, and had the following composition:
The preceding basal ration was mixed with bacitracin at a level of 4 g/T as the only growth stimulant to simulate commercial practice. This mixture was designated as the Basal Ration + Bacitracin (4 g/T) and constituted the negative control in this study.
A second ration was prepared by fortifying the Basal Ration + bacitracin described above with the Product from Example I above at a level of 200 g/T, and was designated as Basal Ration + Bacitracin + Product of Example I (200 g/T). A third ration was prepared by fortifying the Basal Ration + bacitracin described above with chlortetracycline (CTC) at a level of 200 g/T, and was designated as Basal Ration + Bacitracin + Chlortetracycline (200 g/T).
The term "growth promotion" is used herein to describe the beneficial effect of a compound in eliciting a more rapid of weight gain when compared to the weight gain of control animals not fed the compound. "Feed efficiency" is a term regularly used in animal husbandry and is a measure of the pounds of feed required to produce a pound of gain in the weight of the animal. A lower mathmatical value for feed efficiency reflects improved performance.

[7] = tested on: S. faecalis, E. rhusiopathiae, B. bronchiseptica, S. agalactiae, Streptococcus group E and Vibrio coli; assay: Bactericide test, comparison with chlortetracycline; format: cell-based; details: Table A
Source text: Test formulations were examined for bactericidal and/or bacteriostatic activity against the test organisms shown in Tables A and B. These organisms were chosen as being representative of commercially important pathogens affecting animal agriculture. The antibiotic chlortetracycline was chosen as a positive control, since it has a broad spectrum of activity against a large number of organisms, and its activity can be used for comparative purposes.
Basic test formulations of the product of Examples I, II, III, and of chlortetracycline were prepared by dissolving 16 mg (0.016 g) in 2.0 ml of stock emulsifier solution (0.25% Triton X-155 in acetone by volume) and making each solution up to 50 ml with deionized water. The concentration of the test compound in the basic formulation was 320 ppm. Lower concentrations of the test compound were obtained by diluting the basic formulation with a 4% solution of the stock emulsifier in deionized water so that each dilution in the series differed only in test compound content.
Nutrient-tryptic soy agar (NTA) consisting of 2.0% Difco Bactoagar 0.8% nutrient broth (Difco), and 0.5% tryptic soy broth (Difco) was prepared and sterilized by autoclaving. A 2 ml aliquot of each test formulation was added to 8 ml of molten NTA. This mixture was then plated in a sterile polystyrene petri dish (100 × 15 mm). After the agar was set, suspensions of each of the test organisms were simultaneously streaked onto the surface of the agar. The inoculated plates were incubated for 48 hr. at 28°C. The inhibition of growth of each organism was rated by visual comparison with the organism developing on non-treated agar. Growth inhibition reported as percent control was rated in three categories as follows: 0% control, growth equivalent to that on non-treated agar; 50% control, sparse development and separated colonies; 100% control, no visible growth or development of colonies.

[8] = Example XII: 4 week chick feeding test, repeat with five replicates (Table VII); format: in vivo, broiler cross chicks; details: Table VII
[9] = Example VIII: 4 week chick feeding test at low levels; format: in vivo, broiler cross chicks; details: Table II, compared with other growth promotants
Source text: as §2
The basal ration was the basal ration used in Example VII above. The remaining five rations wer obtained by mixing the indicated quantities of bacitracin (4 g/T), chlortetracycline (10 g/T), product of Example I (10 g/T), and product of Example II of U.S. Pat. No. 3,542,784 -- Burch (10 g/T) as growth promotants with the basal ration.

## O=[N+]([O-])c1ccc(C=Cc2nc(Nc3ccc(O)cc3)c3ccccc3n2)o1 [Example I, 2-[2-(5-nitro-2-furyl)vinyl]-4-(p-hydroxyanilino)quinazoline]
[1]
  feed efficiency (in words): enhanced feed efficiency
  growth (in words): very substantial growth improvement
[2]
  growth rate / feed efficiency response (in words): moderate improvement in production parameters
[3]; 25g/T + 25g/T bacitracin
  combined effect with bacitracin (in words): synergistic effects
[3]; 25g/T + Bacitracin (25g/T)
  Improved Response Over Basal Ration: Feed Efficiency: +7.5%
  Improved Response Over Basal Ration: Gain: +4.6%
[3]; Table V
  feed efficiency (in words): substantial improvement in feed efficiency
  growth rate (in words): moderate improvement in growth rate
[4]; 25g/T
  Average 4 Week Performance: Feed Efficiency: 1.503
  Improved Response Over Basal Ration: Feed Efficiency: +3.2%
  Improved Response Over Basal Ration: Gain: +6.2%
[4]; 25 g/T, Table IV
  growth rate and feed efficiency response (in words): strongest response in growth rate and feed efficiency
[5]; 12.5 g/T
  growth promotion (in words): noticeable growth promotion
[5]; 25 and 50 g/T
  weight gain and feed efficiency (in words): improvements in weight gain and feed efficiency
[5]; 100 g/T
  weight gain (in words): absence of weight gain improvement
[5]; 200 g/T
  improvement (in words): substantial improvements
[5]; economics and efficacy
  optimum concentration: 25 g/T
[6]
  statistical significance of improved feed efficiencies: significant at the 99.9% level of probability
  statistical significance of improved weight gains: significant at the 99.5% level of probability
[7]
  effectiveness relative to chlortetracycline (in words): considerably more effective
[8]
  growth rate / feed efficiency response (in words): moderate improvement in production parameters
[9]
  growth promotion (in words): greater growth promotion than any of the other growth promotants

## O=[N+]([O-])c1ccc(C=Cc2nc(Nc3cccc(O)c3)c3ccccc3n2)o1 [Example II, 2-[2-(5-nitro-2-furyl)vinyl]-4-(m-hydroxyanilino)quinazoline]
[2]
  growth rate / feed efficiency response (in words): moderate improvements
[7]
  effectiveness relative to chlortetracycline (in words): considerably more effective

## O=[N+]([O-])c1ccc(C=Cc2nc(Nc3ccccc3)c3ccccc3n2)o1 [Example IV, 2-[2-(5-nitro-2-furyl)vinyl]-4-anilinoquinazoline]
[7]
  effectiveness relative to chlortetracycline (in words): considerably more effective

— patent US3973021A, “2-[2-(5-Nitro-2-furyl)vinyl]-4-(phydroxyanilino)quinazoline as a bactericide” (Diamond Shamrock Corporation, priority 1975, dated 1976)
